Data reported in ChEMBL document CHEMBL4428041, “Identification and SAR Evaluation of Hemozoin-Inhibiting Benzamides Active against Plasmodium falciparum” (J Med Chem, 2016).
In brackets after ≈: the same amount, converted by molar mass. Values belong to the compound of their own block, whether it stands above or below them. Activity calls are given as the source filed them. The calls are words filed in the database; no cut-off is given here.

Key:
[1] = system: Plasmodium falciparum; assay: Antimalarial activity against CQ-sensitive Plasmodium falciparum D10 infected in human type O+ erythrocytes assessed as growth inhibition incubated for 48 hrs by LDH assay; assay type: functional, organism-based; settings: D10, 48 h
[2] = system: Hemozoin; assay: Inhibition of beta-hematin in water/NP40/DMSO solution incubated for 5 to 6hrs by detergent-mediated pyridine-ferrichrome method
[3] = system: Plasmodium falciparum; assay: Antimalarial activity against CQ-sensitive Plasmodium falciparum NF54 infected in human type O+ erythrocytes assessed as growth inhibition incubated for 48 hrs by LDH assay; assay type: functional, organism-based; settings: NF54, 48 h
[4] = system: Ferriprotoporphyrin IX; assay: Binding affinity to Fe(3)PP9 solution assessed as ferriprotoporphyrin 9 complex formation by measuring compound concentration causing pink precipitate formation at <=5500 uM
[5] = system: Ferriprotoporphyrin IX; assay: Binding affinity to Fe(3)PP9 solution assessed as ferriprotoporphyrin 9 complex formation by measuring pink precipitate formation at <=5500 uM
[6] = system: Hemozoin; assay: Inhibition of hemozoin formation in CQ-sensitive Plasmodium falciparum D10 infected in human type O+ erythrocytes assessed as free heme level at beta-hematin IC50 incubated for 32 hrs by cell fractionation assay (reference value: 7%); assay type: cell-based; set-up: scale not given: the % may be the effect or the level left; settings: Erythrocyte
[7] = system: Hemozoin; assay: Inhibition of hemozoin formation in CQ-sensitive Plasmodium falciparum D10 infected in human type O+ erythrocytes assessed as hemozoin level at beta-hematin IC50 incubated for 32 hrs by cell fractionation assay (reference value: 89%); assay type: cell-based; set-up: scale not given: the % may be the effect or the level left; settings: Erythrocyte
[8] = system: Ferriprotoporphyrin IX
Description: Binding affinity to Fe(3)PP9 in hematin solution at pH 7.5 by titration-based UV-vis spectrophotometrical analysis

[9] = Kinetic solubility of compound at pH 2 after 2 hrs by shake flask assay; assay type: physicochemical; settings: buffer, read-out: Kinetic_solubility
[10] = Kinetic solubility of compound in at pH 6.5 after 2 hrs by shake flask assay; assay type: physicochemical; settings: buffer, read-out: Kinetic_solubility
[11] = system: Hemozoin; assay: Inhibition of hemozoin formation in CQ-sensitive Plasmodium falciparum D10 infected in human type O+ erythrocytes assessed as increase in free heme incubated for 32 hrs by cell fractionation assay; assay type: cell-based; settings: Erythrocyte
[12] = Half life in human liver microsomes at 0.1 uM in presence of NADPH by LC-MS/MS analysis; assay type: ADME, Microsome
[13] = Clearance in human liver microsomes assessed per mg of protein at 0.1 uM by LC-MS/MS analysis; assay type: ADME, Microsome; settings: read-out: CLH
[14] = Extraction ratio in human liver microsomes assessed per mg of protein at 0.1 uM by LC-MS/MS analysis; assay type: ADME, Microsome; settings: read-out: ERH
[15] = Clearance in mouse liver microsomes assessed per mg of protein at 0.1 uM by LC-MS/MS analysis; assay type: ADME, Microsome; settings: read-out: CLH
[16] = Selectivity index, ratio of IC50 for cytotoxicity against CHO cells to IC50 for CQ-sensitive Plasmodium falciparum NF54 infected in human type O+ erythrocytes; assay type: toxicity, cell-based; settings: Chinese hamster, read-out: Ratio IC50
[17] = system: Hemozoin; assay: Inhibition of hemozoin formation in Plasmodium falciparum trophozoites infected in human erythrocytes assessed as induction of irregularly scattered and shapeless hemozoin clumps inside swollen digestive vacuole at 0.22 ug/ml incubated for 32 hrs by transmission electron microscopic analysis relative to control; assay type: cell-based; settings: Erythrocyte
[18] = system: Hemozoin; assay: Inhibition of hemozoin formation in CQ-sensitive Plasmodium falciparum D10 infected in human type O+ erythrocytes assessed as decrease in hemozoin formation incubated for 32 hrs by cell fractionation assay; assay type: cell-based; settings: Erythrocyte
[19] = Kinetic solubility of compound FaSSIF at pH 6.5 after 2 hrs by shake flask assay; assay type: physicochemical; settings: read-out: Kinetic_solubility
[20] = Half life in mouse liver microsomes at 0.1 uM in presence of NADPH by LC-MS/MS analysis; assay type: ADME, Microsome
[21] = Extraction ratio in mouse liver microsomes assessed per mg of protein at 0.1 uM by LC-MS/MS analysis; assay type: ADME, Microsome; settings: read-out: ERH
[22] = Clearance in rat liver microsomes assessed per mg of protein at 0.1 uM by LC-MS/MS analysis; assay type: ADME, Microsome; settings: read-out: CLH
[23] = Half life in rat liver microsomes at 0.1 uM in presence of NADPH by LC-MS/MS analysis; assay type: ADME, Microsome
[24] = system: CHO; assay: Cytotoxicity against CHO cells by MTT assay; assay type: cell-based; settings: Cricetulus griseus
[25] = system: Plasmodium falciparum; assay: Antimalarial activity against CQ-resistant Plasmodium falciparum K1 infected in human type O+ erythrocytes assessed as growth inhibition incubated for 48 hrs by LDH assay; assay type: functional, organism-based; settings: K1, 48 h
[26] = Extraction ratio in rat liver microsomes assessed per mg of protein at 0.1 uM by LC-MS/MS analysis; assay type: ADME, Microsome; settings: read-out: ERH
[27] = system: Plasmodium falciparum; assay: Antimalarial activity against CQ-sensitive Plasmodium falciparum D10 infected in human type O+ erythrocytes assessed as growth inhibition up to 249 uM incubated for 48 hrs by LDH assay; assay type: functional, organism-based
[28] = system: Plasmodium falciparum; assay: Antimalarial activity against CQ-sensitive Plasmodium falciparum NF54 infected in human type O+ erythrocytes assessed as growth inhibition up to 249 uM incubated for 48 hrs by LDH assay; assay type: functional, organism-based
[29] = system: Hemozoin; assay: Inhibition of beta-hematin
[30] = system: Plasmodium falciparum; assay: Antimalarial activity against Plasmodium falciparum D6 infected in red blood cells assessed as growth inhibition by SYBR green1 fluorescence-based assay; assay type: functional, organism-based
[31] = system: Hemozoin; assay: Inhibition of beta-hematin incubated for 6 hrs by NP40 detergent-mediated assay
[32] = system: Hemozoin; assay: Inhibition of hemozoin formation in CQ-sensitive Plasmodium falciparum D10 infected in human type O+ erythrocytes assessed as decrease in hemozoin formation at 0.5 to 4 times beta-hematin IC50 incubated for 32 hrs by cell fractionation assay; assay type: cell-based; settings: Erythrocyte
[33] = system: Hemozoin; assay: Inhibition of hemozoin formation in CQ-sensitive Plasmodium falciparum D10 infected in human type O+ erythrocytes assessed as increase in free heme at 0.5 to 4 times beta-hematin IC50 incubated for 32 hrs by cell fractionation assay; assay type: cell-based; settings: Erythrocyte

Compound: O=C(Nc1ccccc1)c1cc(C(=O)Nc2ccccc2)cc(C(=O)Nc2ccccc2)c1
IC50 [1]: > 42 µM
IC50 [2]: 21 µM
IC50 [3]: 81 µM

Activity [4]: inactive
Activity [5]: inactive
IC50 [2]: > 5500 µM
Compound: O=C(Nc1ccccc1)c1ccc([N+](=O)[O-])cc1

IC50 [2]: 7.9 µM
Compound: CN(C)Cc1ccc(NC(=O)c2cc(C(=O)Nc3ccc(CN(C)C)cc3)cc([N+](=O)[O-])c2)cc1
Activity [6]: 41%
Activity [7]: 53%
IC50 [3]: 1.5 µM

Compound: O=C(Nc1ccccc1)c1ccccc1[N+](=O)[O-]
IC50 [2]: > 1000 µM
IC50 [3]: > 41.3 µM

Activity [4]: inactive
Activity [5]: inactive
IC50 [2]: > 5500 µM
Compound: COc1ccc(C(=O)Nc2ccncc2)cc1

Compound: O=C(Nc1ccccc1)c1cc([N+](=O)[O-])cc([N+](=O)[O-])c1
IC50 [2]: 22 µM
IC50 [3]: 5 µM

Compound: C=C[C@H]1CN2CC[C@H]1C[C@@H]2[C@@H](O)c1ccnc2ccc(OC)cc12
log K [8]: 5.26

Activity [4]: 1300 to 2300 µM
Compound: O=C(Nc1ccncc1)c1cccc(C(F)(F)F)c1

IC50 [2]: 260 µM
Compound: O=C(Nc1ccncc1)c1cccc(C(=O)Nc2ccncc2)n1
IC50 [3]: > 315 µM

Compound: CC(C)(C)c1cc(C(=O)Nc2cccnc2)cc(C(=O)Nc2cccnc2)c1
solubility kinetic at 2 h [9]: 197 µM (≈ 73.8 µg/mL)
solubility kinetic at 2 h [10]: 92.7 µM (≈ 34.7 µg/mL)
inhibition [11]: Dose-dependent effect
half-life at 0.1 µM [12]: 2.37 h
microsomal CLint at 0.1 µM [13]: 14.1 µL/min/mg
IC50 [1]: 0.7 µM
hepatic extraction ratio at 0.1 µM [14]: 0.4
microsomal CLint at 0.1 µM [15]: 130 µL/min/mg
selectivity ratio [16]: 308
IC50 [2]: 6.8 µM
Activity [17]: Active
inhibition [18]: Dose-dependent effect
solubility kinetic at 2 h [19]: 154 µM (≈ 57.5 µg/mL)
IC50 [3]: 0.6 µM
half-life at 0.1 µM [20]: 0.873 h
hepatic extraction ratio at 0.1 µM [21]: 0.6
microsomal CLint at 0.1 µM [22]: 33.5 µL/min/mg
half-life at 0.1 µM [23]: 1.55 h
IC50 [24]: 185 µM
IC50 [25]: 1.7 µM
hepatic extraction ratio at 0.1 µM [26]: 0.4

Compound: O=C(Nc1ccncc1)c1ccc([N+](=O)[O-])cc1[N+](=O)[O-]
Activity [4]: inactive
Activity [5]: inactive
IC50 [2]: > 5500 µM

Compound: O=C(Nc1ccccn1)c1cc([N+](=O)[O-])cc([N+](=O)[O-])c1
IC50 [1]: 24 µM
IC50 [2]: 134 µM
IC50 [3]: 22 µM

log K [8]: 4.43
Compound: Nc1ccnc2cc(Cl)ccc12

Compound: O=C(Nc1ccccc1)c1cc(C(=O)Nc2nc3ccccc3[nH]2)cc([N+](=O)[O-])c1
Activity [27]: inactive
Activity [28]: inactive
IC50 [2]: 68 µM

IC50 [2]: 6.34 µM
Compound: N#Cc1cc(C(=O)Nc2ccncc2)cc(C(=O)Nc2ccncc2)c1
IC50 [1]: 2 µM
IC50 [3]: 1.9 µM

Compound: CCN(CC)Cc1cc(Nc2ccnc3cc(Cl)ccc23)ccc1O [AMODIAQUINE]
IC50 [29]: 21 µM

IC50 [2]: 13.3 µM
Compound: CC(C)(C)c1cc(C(=O)Nc2ccncc2)cc(C(=O)Nc2ccncc2)c1
IC50 [3]: 1.6 µM

Compound: O=C(Nc1ccncc1)c1cc(C(=O)Nc2ccncc2)cc([N+](=O)[O-])c1
solubility kinetic at 2 h [9]: 200 µM (≈ 72.6 µg/mL)
solubility kinetic at 2 h [10]: < 5 µM
half-life at 0.1 µM [12]: > 2.5 h
microsomal CLint at 0.1 µM [13]: < 11.6 µL/min/mg
IC50 [1]: 0.9 µM
microsomal CLint at 0.1 µM [15]: < 11.6 µL/min/mg
IC50 [2]: 4.3 µM
IC50 [30]: 0.19 µM
solubility kinetic at 2 h [19]: 13 µM (≈ 4.72 µg/mL)
IC50 [3]: 0.7 µM
half-life at 0.1 µM [20]: > 2.5 h
microsomal CLint at 0.1 µM [22]: < 11.6 µL/min/mg
half-life at 0.1 µM [23]: > 2.5 h
IC50 [24]: > 275 µM
IC50 [31]: 5.86 µM

IC50 [2]: > 1000 µM
Compound: CC(C)(C)c1cc(C(=O)Nc2ccccc2)cc(C(=O)Nc2ccccc2)c1
inhibition [32]: inactive
inhibition [33]: inactive
IC50 [3]: 8.1 µM
